Assay results from a melting point compilation (Tetko et al.; mined from patent text by program, amines drawn as free bases though some values may be those of a salt).

melting point [°C] | Structure (SMILES)
188 | CS(=O)CCc1nc2nc[nH]c2c2nc(-c3ccc(-c4ccccc4)cc3)nn12 (stereo not given)
101 to 102 | CC(C)c1cc(OCCOCc2ccccc2)cc2c1C(=O)N(CCl)S2(=O)=O
160 to 162 | CS(=O)C(C)(O)c1ccc(-c2ccccc2)cc1 (stereo not given)
148 to 150 | O=S(=O)(NCCc1ccc(Nc2nnn[nH]2)cc1)c1ccc(Cl)cc1
221 to 224 | Cc1cc(NC2=NCCN2)n(-c2cccc3ccccc23)n1
229 to 231 | O=C(O)Cc1c(-c2ccccc2)nn(C2CCCCC2)c1-c1ccccc1
199 to 203 | Cc1csc2ccc3[nH]c4c(c3c12)CN(C(C)C)CC4
119 to 120 | CN(C)CCCn1c2c(c3ccccc31)CCS(=O)(=O)CCC2
132 | COc1ccc([C@]2(C)CNC(=O)O2)cc1OC1CCC1
132 to 134 | CCOc1cc2oc(=O)c3c(c2cc1OCC)CCN(CCN1CC2CCC(CC2)C1)C3
50 to 54 | NC(=O)[C@@H]1CCCN1C(=O)/C=C/Sc1ccccc1
220 | CC(=O)OCC1=C(C(=O)O)N2C(=O)C(NC(=O)Cn3ccnc3S(C)=O)C2SC1 (stereo not given)
164 to 167 | CS(=O)(=O)Cc1ccc(Oc2cc(OC3CCOCC3)c3[nH]c(C4=NCC(CC(N)=O)S4)cc3c2)cn1 (stereo not given)
168 to 170 | Cc1cnc2c(NC(=O)c3c(Cl)cccc3Cl)cccc2c1Oc1ccccc1
165 to 168 | NC(=O)C1CCn2c(cc3ccccc32)C1 (stereo not given)
204 to 206 | Nc1cc(C(c2cc(F)ccc2F)S(=O)(=O)c2ccc(Cl)cc2)c(Br)cn1 (stereo not given)
192 to 194 | CCOC(=O)C1=C(C)NC(C)=C(C(=O)OCC)C1c1ccccc1/C=C/C(=O)OC1CCCCCC1
193 to 195 | O=C1C(=O)c2ccccc2C2=C1SCC1(CCN(CC(O)c3ccccc3)CC1)O2 (stereo not given)
189 to 190 | CN(C)c1nc(-c2ccc(Cl)cc2)c(CCC(=O)O)o1
102 to 104 | CCN(C(=O)c1ccc2nonc2c1)C1CCOCC1
108 to 110 | CC(C)Nc1cccnc1N1CCN(C(=O)c2ccc(C(=O)NCC3CCCO3)cn2)CC1 (stereo not given)
232 to 233 | CCOc1ccc(Nc2n[nH]c3ncnc(Nc4cccc(Cl)c4)c23)cc1
180 | CCOc1ccc2c(c1)n(C1CCCCC1)c(=O)n2S(=O)(=O)c1ccc(C(=O)NC(C)(C)CC(C)(C)C)cc1OC
161 to 163 | Oc1ccc(N2CCN(c3nc4ccccc4o3)CC2)cc1
263 to 265 | Cc1cc2c(C)nc(N)nc2o1

melting point [°C] | Structure (SMILES)
209 | COc1cc(N)c(Cl)cc1C(=O)N[C@H]1CCN(CCNC(=O)c2ccc(F)cc2)C[C@H]1OC (relative stereo)
194 to 196 | CC(=O)CCCn1c(C)nc2c(N)nc3ccccc3c21
142 to 144 | C#CCc1c(-c2ccccc2)nc(C)n(C)c1=O
241 to 243 | O=C(O)c1cccc(C(=O)O)c1Nc1ccc(I)cc1
107 to 109 | COC(=O)C1=C(C)NC(C)=C(C(=O)OCCc2ccc(O)cc2)C1c1cccc([N+](=O)[O-])c1 (stereo not given)
52 | CCC(C)(C)C1=C(O)C(=O)c2ccccc2C1=O
42 to 43 | CC(=O)c1cccn1Cc1ccco1
87 to 88 | Cc1oc(-c2ccccc2)nc1COc1ccc2cc(CCCCC#N)oc2c1
162 to 163 | CCOc1cc2c(c3c1OC(C)(C)C3)C(c1cccc(NC(=O)CSC)c1)=NC(C)(C)C2
193 to 195 | O=C(c1ccc2nc(C3CC3)n(Cc3ccccc3Cl)c2c1)C1CNCCO1 (stereo not given)
127 to 130 | O=C(O)CCc1ccc(CCNS(=O)(=O)c2ccc(Cl)cc2)s1
149 to 151 | COc1ccc2oc(C(C)N(O)C(N)=O)cc2c1 (stereo not given)
110 to 111 | CCCCCCCCCCCCCCS(=O)(=O)c1cc(S(C)(=O)=O)ccc1-n1oc(C(C)(C)C)c(CCl)c1=O
128 to 130 | O=C(O)Cn1cc(Cc2nc3c(F)c(F)cc(F)c3s2)c2cc(Oc3ccccc3)ccc21
84 to 86 | CC(=O)c1ccc2c(c1)[C@@H](O)[C@H](Br)C(C)(C)O2 (relative stereo)
119 to 120 | COc1nccnc1NS(=O)(=O)c1ccc(Cl)s1
107 to 109 | O=C(CSc1ncc(Br)cn1)c1ccccc1
163 to 164 | COc1ccc(C(=O)Nc2ccccc2)cc1NCc1ccc(C)c(C)c1
194 to 196 | O=C(Nc1ccccc1Oc1ccc(Cl)cc1Cl)C1CCN(S(=O)(=O)c2cc(Cl)ccc2Cl)CC1
218 to 221 | O=C(NCc1c[nH]c(=S)n1[C@H]1CCc2c(F)cc(F)cc2C1)c1cccnc1
80 | CC(=O)OC1CSC(Oc2ccc3c(c2)nnn3C)C(OC(C)=O)C1OC(C)=O (stereo not given)
160 to 164 | O=C(OCC(=O)N1CCCCC1)c1ccc(O)cc1
80 | FC(F)(F)c1nncn1-c1ccccc1
229 to 230 | CCCOc1cccc2c1C(N)=NS(=O)(=O)N2
103 to 115 | CCCn1cc(Cc2ccc(C(=O)NS(=O)(=O)c3ccccc3C)cc2OC)c2cc(CC3CCN(C)C3=O)ccc21 (stereo not given)

melting point [°C] | Structure (SMILES)
120 | CN1CCC(OC2c3cccc(-c4cccc(N)c4)c3CCn3cc(-c4ccccc4)nc32)CC1 (stereo not given)
105 | Cc1cccc(C2(Cn3cncn3)OCCO2)c1
206 to 207 | CN(C)c1ccc(S(=O)(=O)Nc2cnc3ccc(Cl)cc3n2)cc1
259 to 260 | CCOC(=O)C(=O)Nc1ccc(N(C)C)cc1O
148 to 149 | CCn1c2cc(C=O)ccc2c2c3ccccc3ccc21
227 to 230 | Cc1nc(OC(C)C)nc(C)c1N1CCCn2c1nc1c(Cl)ccc(C(OC(F)F)C(F)(F)F)c12 (stereo not given)
168 to 170 | COC(=O)C(Cc1ccccc1)NC(=O)C(N)(CC(=O)O)NC(=O)C(C)C (stereo not given)
222 | O=C(Nc1ccc(S(=O)(=O)c2ccccc2)cc1)N[C@@H](Cc1ccc(NC(=O)c2c(Cl)cccc2Cl)cc1)C(=O)O
106 to 107 | CSc1nc2ccc(CCc3nc4cc(C)ccn4c3C)cc2o1
98.5 to 99.5 | C=C(C)C(=O)OC(c1ccccc1)(c1ccccc1)c1ccncc1
195 | COc1ccc(S(=O)(=O)N(CC(N)=O)c2ccc(Cl)cc2Cc2c(Cl)cccc2Cl)cc1OC
140 | CCCC(=O)OC1c2ccccc2C(=O)N1c1ccc2ccc(Cl)nc2n1 (stereo not given)
232 to 234 | Cc1ccc2c(c1)C=Cn1c(n[nH]c1=O)C2
247 to 248 | CCCS(=O)(=O)c1ccc(NS(=O)(=O)c2cccs2)c2[nH]c(C(=O)O)cc12
65 to 66 | N#CN(Cc1ccccc1)c1ccccn1
217 to 220 | NC(=O)c1cnccc1-c1ccccc1C(=O)N1Cc2ccccc2Cc2ccccc21
164 to 166 | COC(C(=O)O)c1ccc2nc(-c3ccc(Cl)cc3)oc2c1 (stereo not given)
193 | N#CC1=C(C2CCCCC2)Nc2n[nH]cc2C1c1cccc(C#N)c1Br (stereo not given)
106 | N=c1sc2cc(OC(F)(F)F)ccc2n1CCCO
230 | CC1(C)CC(=O)Nc2c(CCN3CCN(c4noc5ccccc45)CC3)cc(F)cc21
82 to 85 | CN1C(=O)C(Cc2ccccc2)Oc2ccc(N)cc21 (stereo not given)
> 250 | CCCc1[nH]c2cc(C(=O)O)ccc2c1C(=O)COC
76.5 to 78.5 | COC(=O)COC(=O)COc1ccc(N)cc1
76 to 77 | O=C(NCCCCC1CCSS1)N1CCSC1 (stereo not given)
109 to 111 | Cc1cc([N+](=O)[O-])c(Cl)c([N+](=O)[O-])c1C

melting point [°C] | Structure (SMILES)
107 to 109 | COC(=O)C1=C(c2ccc(OC)cc2)C(c2ccc(OC)cc2)OC1=O (stereo not given)
76 to 77 | CCOCc1cc2cc(Cl)ccc2oc1=Nc1ccc(C)cc1
140 | COCCOc1ccc2c(C(c3cccc(NC(=O)OCc4ccccc4)c3C)C(C)[N+](=O)[O-])c[nH]c2c1 (stereo not given)
244 to 245 | Cn1cc(CNC(=O)c2cc(N3CCN(Cc4ccc(F)cc4)C3=O)n[nH]2)cn1
287 to 288 | CC(=O)N[C@H]1CC[C@H](Nc2nccc(-n3nnc4ccccc43)n2)CC1
105 to 106 | Fc1cc(Cl)c2ccc(Cl)cc2n1
96 to 102 | CCCCCCCCCCCCCCCCCC(=O)c1ccc(C(=O)O)c(Cl)c1
136 to 138 | CC(C)OC(=O)C(C(=O)c1ccc2c(c1)OCO2)=C1SC=CS1
121 to 122 | COc1ccc(C=Cc2cccc(C#N)n2)cc1
72 to 75 | CC(C)c1nsc(N=C(Cl)N(C)C)c1C#N
122 to 125 | CC(=CC=Cc1ccccc1)C(=O)C1OCC(C)(C)CO1
122 to 124 | CC(C)OC(=O)NC(=O)C(c1ccccc1)c1ccccc1
132 | Nn1c(C2CC2)cc(-c2ccc(C(F)(F)F)cc2)cc1=O
195 | c1ccc(Cn2cnc(-c3cnc(-c4ccccc4)nc3)c2)cc1
108 to 110 | CCOC(=O)CCCC1(CCCC(=O)OCC)CC(=O)c2ccc(O)cc2O1
152 to 154 | N#Cc1c(N2CCCCC2)cc(-c2ccc(F)cc2)c2c1C(=O)c1ccccc1-2
144 to 145 | Cc1ccc(-n2nc(C(F)(F)F)cc2-c2ccc(S(C)(=O)=O)c(F)c2)cc1Cl
124 to 126 | Cc1ncc2c(c1C#N)COc1ccccc1C2=O
111 to 112 | O=C1N[C@H](Cc2ccc(C(F)(F)F)cc2)[C@H](c2ccoc2)O1 (racemic)
202 | Cc1cc2nc(Cl)c3cccnc3n2n1
94 to 95 | CCc1cc(-c2ccc(OC)cc2)ccc1[N+](=O)[O-]
139 to 141 | O=C1C=C(C(=O)c2ccccc2[N+](=O)[O-])CC(c2ccccc2)N1 (stereo not given)
112 | O=C(O)Cc1cccc(C(=O)c2cccs2)c1Cl
152 to 154 | COc1cc2c(cc1OC(=O)c1ccccc1)C1Cc3c(Cl)cc(OC)c(OC(=O)c4ccccc4)c3CN1CC2 (stereo not given)

Structure (SMILES) | melting point [°C]
COc1ccccc1-c1cn([C@H]2CN3CCC2CC3)nn1 | 120
